According to patent US8772334B2, “Synergistic antimicrobial mixtures” (priority 2008, dated 2014):

Columns and labels:
mildew = assay: Outdoor exposure of wood-plastic composite panels including biocides, mildew growth (ASTM D 3274-94); parameters: key: 10 - No mildew growth; 9 - Very slight growth; 8 - Slight (very good); 7 - Some growth (good); 6 - Moderate growth (considered a failure); 4 - Pronounced growth; 2 - Severe growth; 0 - Very severe growth; conditions: WPC panel, Miami; for Mildew Growth 3 Months: 3 months outdoors; for Mildew Growth 6 Months: 6 months outdoors; for Mildew Growth 9 Months: 9 months outdoors; for Mildew Growth 12 Months: 12 months outdoors
Protocol: Several candidate biocides were tested in a typical WPC formulation, which is presented below in Table I.
WPC panels for evaluation were prepared by blending the above ingredients in a drum mixer for 30 to 35 minutes at 30 to 40 rpm and then processing the resulting mixture through a Tek Milacron extruder. This extruder is a twin-screw counter rotating conical unit having four temperature zones, for a total heated length of ten feet (3.0 m), and a 3.38 inch (86 mm) die at the exit. The temperature of extrusion was in the range of 340 to 350 degrees F. (171 to 177 degrees C.) and the WPC boards so produced had dimensions of about 5 feet (152 cm)×5½ inches (14 cm)×1 inch (2.5 cm). The WPC boards were subsequently cut into panels of one foot (30 cm) length.
Wood-plastic composite panels incorporating various biocides were prepared in accordance with the procedure set forth above in Example 1. The panels were evaluated for mildew growth by being exposed to the weather outdoors in Miami, Fla. for one year under a protocol publicly known as ASTM D 3274-94 of ASTM International (originally known as the American Society for Testing and Materials).
For the purposes of this evaluation, any biocide or combination of biocides which prevents moderate (or worse) mildew growth for an outdoor exposure period of at least 9 months is considered to have passed the weathering test.

[1] = tested on: Aspergillus niger, also known as ATCC 6275; assay: MIC by spiral plater (spiral gradient endpoint) and Berenbaum FIC synergy against A. niger; format: cell-based; conditions: for MIC ppm, average of spiral plater replications: malt agar, 48 hours at 28° C., ppm of active fungicide, mean of twelve replications
Text: A method for assessing synergy of a multi-component mixture having biologically active components is described in a technical article by M. C. Berenbaum entitled “Synergy, additivism and antagonism in immunosuppression”, which was published in the Journal of Clinical Experimental Immunology. See Clinical Exp. Immunol. 28, p. 1-18 (1977).
In the method, the dose of each agent which provides a synergistic or antagonistic effect in the overall biological effect of a mixture against a particular organism is expressed as a fraction of the dose that causes the effect when the respective agent is tested alone (hereinafter referred to as “dose of X/Xe”, “Fractional Inhibitory Concentration of agent X” or “FICX”). If the sum of the FICX's for a combination of active ingredients in a mixture is 1, the combination is additive in its effect. If the sum is less than one, the combination is synergistic. If the sum is greater than one, the combination is antagonistic. The general relationship (which may be an equality or an inequality) expressed for multi-component mixtures of biologically active components is herein designated Equation 1, as follows: […]
In order to apply the Berenbaum method to compositions of the invention, mixtures of fungicidal agents are prepared. The fungicidal activity of each of the mixtures is determined and expressed in terms of a minimum inhibitory concentration, which is just sufficient to inhibit the growth of a given microbe (hereinafter referred to “MIC”) for each of the mixtures. These MICs are subsequently used to calculate FICX for each agent X of a particular mixture. All of the FICX 's for each mixture (also known as the doses of X/Xe for the mixture) are summed, and the criteria for synergism, additivism and antagonism (as set forth above in Equation 1) are used to assess the mixture.
Minimum Inhibitory Concentrations (hereinafter referred to as “MIC”) for various mixtures of biocides were determined against spore suspensions of the fungus Aspergillus niger, also known as ATCC 6275 (hereinafter referred to as “A. niger”). […]

[2] = tested on: Aureobasidium pullulans, also known as ATCC 9348; assay: MIC by spiral plater and Berenbaum FIC synergy against A. pullulans; format: cell-based; conditions: mean of twelve replications
[3] = 0.2 mass % biocide (0.2 mass % active)
[4] = 0.22 mass % biocide (0.22 mass % active)
[5] = 0.23 mass % biocide (0.23 mass % active)
[6] = 4.0 mass % biocide (4.0 mass % active)

COC(=O)Nc1nc2ccccc2[nH]1 [98% BCM, methyl-N-benzimidazol-2-ylcarbamate]
Mildew Growth 3 Months (mildew; [3]): 5 | Mildew Growth 6 Months (mildew; [3]): 1 | Mildew Growth 9 Months (mildew; [3]): 2 | Mildew Growth 12 Months (mildew; [3]): 4

COC(=O)Nc1nc2ccccc2[nH]1 [BCM, 2-(methoxycarbonylamino)benzimidazole]
MIC ([1]; Aspergillus niger, ATCC6275, pure BCM, read-out: MIC, average of values for Mixtures No. 2 and 3): 2.6 µg/mL

O=C1C2CC=CCC2C(=O)N1SC(Cl)(Cl)Cl (stereo not drawn) [Captan]
Mildew Growth 3 Months (mildew; [4]): 9 | Mildew Growth 6 Months (mildew; [4]): 1 | Mildew Growth 9 Months (mildew; [4]): 2 | Mildew Growth 12 Months (mildew; [4]): 4

N#Cc1c(Cl)c(Cl)c(Cl)c(C#N)c1Cl [Chlorothalonil]
Mildew Growth 3 Months (mildew; [3]): 9 | Mildew Growth 6 Months (mildew; [3]): 2 | Mildew Growth 9 Months (mildew; [3]): 0 | Mildew Growth 12 Months (mildew; [3]): 3

O=C1c2ccccc2C(=O)N1SC(Cl)(Cl)Cl [Folpet]
Mildew Growth 3 Months (mildew; [5]): 10 | Mildew Growth 6 Months (mildew; [5]): 2 | Mildew Growth 9 Months (mildew; [5]): 0 | Mildew Growth 12 Months (mildew; [5]): 0

CCCCNC(=O)OCC#CI [IPBC, 3-iodo-2-propynyl butyl carbamate]
MIC ppm, average of spiral plater replications [1]: 0.7 ppm

Zinc Borate [99% Zinc Borate]
Mildew Growth 3 Months (mildew; [6]): 8 | Mildew Growth 6 Months (mildew; [6]): 2 | Mildew Growth 9 Months (mildew; [6]): 6 | Mildew Growth 12 Months (mildew; [6]): 5

zinc borate [Mixture No. 4]
MIC ppm, average of spiral plater replications [2]: > 1000 ppm

zinc borate [ZB]
MIC ppm, average of spiral plater replications [1]: 12 ppm
